Test results taken from ChEMBL document CHEMBL5528002, “Identification of selective 5-LOX and FLAP inhibitors as novel anti-inflammatory agents by ligand-based virtual screening” (Eur J Med Chem, 2024).
The source made the active and inactive calls. No cut-off for these calls is given here.

Experiments:
Macrophage cell line [1] = experiment: Effect on lipid mediator formation in human M1-like phenotype MDM cells by measuring 5-HETE formation at 10 uM pre-incubated for 15 mins followed by SACM stimulation and measured after 90 mins by UPLC-MS/MS analysis (reference value: 5357 +/- 1561 pg/ml); assay type: functional; settings: time 105 min, 1.75 h
Macrophage cell line [2] = experiment: Effect on lipid mediator formation in human M1-like phenotype MDM cells by measuring PGE2 formation at 10 uM pre-incubated for 15 mins followed by SACM stimulation and measured after 90 mins by UPLC-MS/MS analysis (reference value: 1789 +/- 871 pg/ml); assay type: functional; settings: time 105 min, 1.75 h
Macrophage cell line [3] = experiment: Effect on lipid mediator formation in human M1-like phenotype MDM cells by measuring TXB2 formation at 10 uM pre-incubated for 15 mins followed by SACM stimulation and measured after 90 mins by UPLC-MS/MS analysis (reference value: 8866 +/- 2561 pg/ml); assay type: functional; settings: time 105 min, 1.75 h
Macrophage cell line [4] = experiment: Effect on lipid mediator formation in human M1-like phenotype MDM cells by measuring t-LTB4 formation at 10 uM pre-incubated for 15 mins followed by SACM stimulation and measured after 90 mins by UPLC-MS/MS analysis relative to control; assay type: functional; settings: time 105 min, 1.75 h
Macrophage cell line [5] = experiment: Effect on lipid mediator formation in human M1-like phenotype MDM cells by measuring 5S,6R-diHETE formation at 10 uM pre-incubated for 15 mins followed by SACM stimulation and measured after 90 mins by UPLC-MS/MS analysis relative to control; assay type: functional; settings: time 105 min, 1.75 h
Macrophage cell line [6] = experiment: Effect on lipid mediator formation in human M1-like phenotype MDM cells by measuring PGD2 formation at 10 uM pre-incubated for 15 mins followed by SACM stimulation and measured after 90 mins by UPLC-MS/MS analysis relative to control; assay type: functional; settings: time 105 min, 1.75 h
Macrophage cell line [7] = experiment: Effect on lipid mediator formation in human M1-like phenotype MDM cells by measuring PGF2alpha formation at 10 uM pre-incubated for 15 mins followed by SACM stimulation and measured after 90 mins by UPLC-MS/MS analysis relative to control; assay type: functional; settings: time 105 min, 1.75 h
Macrophage cell line [8] = experiment: Effect on lipid mediator formation in human M1-like phenotype MDM cells by measuring 7-HDHA formation at 10 uM pre-incubated for 15 mins followed by SACM stimulation and measured after 90 mins by UPLC-MS/MS analysis relative to control; assay type: functional; settings: time 105 min, 1.75 h
Macrophage cell line [9] = experiment: Effect on lipid mediator formation in human M1-like phenotype MDM cells by measuring 12-HEPE formation at 10 uM pre-incubated for 15 mins followed by SACM stimulation and measured after 90 mins by UPLC-MS/MS analysis relative to control; assay type: functional; settings: time 105 min, 1.75 h
Macrophage cell line [10] = experiment: Effect on lipid mediator formation in human M1-like phenotype MDM cells by measuring 12-HETE formation at 10 uM pre-incubated for 15 mins followed by SACM stimulation and measured after 90 mins by UPLC-MS/MS analysis relative to control; assay type: functional; settings: time 105 min, 1.75 h
Macrophage cell line [11] = experiment: Effect on lipid mediator formation in human M1-like phenotype MDM cells by measuring 5,15-diHETE formation at 10 uM pre-incubated for 15 mins followed by SACM stimulation and measured after 90 mins by UPLC-MS/MS analysis relative to control; assay type: functional; settings: time 105 min, 1.75 h
Macrophage cell line [12] = experiment: Effect on lipid mediator formation in human M1-like phenotype MDM cells by measuring EPA formation at 10 uM pre-incubated for 15 mins followed by SACM stimulation and measured after 90 mins by UPLC-MS/MS analysis relative to control; assay type: functional; settings: time 105 min, 1.75 h
Macrophage cell line [13] = experiment: Effect on lipid mediator formation in human M2-like phenotype MDM cells by measuring 5S,6R-diHETE formation at 10 uM pre-incubated for 15 mins followed by SACM stimulation and measured after 90 mins by UPLC-MS/MS analysis (reference value: 206 +/- 47 pg/ml); assay type: functional; settings: time 105 min, 1.75 h
Macrophage cell line [14] = experiment: Effect on lipid mediator formation in human M2-like phenotype MDM cells by measuring 17-HDHA formation at 10 uM pre-incubated for 15 mins followed by SACM stimulation and measured after 90 mins by UPLC-MS/MS analysis (reference value: 4702 +/- 885 pg/ml); assay type: functional; settings: time 105 min, 1.75 h
Macrophage cell line [15] = experiment: Effect on lipid mediator formation in human M2-like phenotype MDM cells by measuring 15-HEPE formation at 10 uM pre-incubated for 15 mins followed by SACM stimulation and measured after 90 mins by UPLC-MS/MS analysis (reference value: 1385 +/- 343 pg/ml); assay type: functional; settings: time 105 min, 1.75 h
Macrophage cell line [16] = experiment: Effect on lipid mediator formation in human M2-like phenotype MDM cells by measuring 12-HETE formation at 10 uM pre-incubated for 15 mins followed by SACM stimulation and measured after 90 mins by UPLC-MS/MS analysis (reference value: 3325 +/- 789 pg/ml); assay type: functional; settings: time 105 min, 1.75 h
Macrophage cell line [17] = experiment: Effect on lipid mediator formation in human M2-like phenotype MDM cells by measuring 5,15-diHETE formation at 10 uM pre-incubated for 15 mins followed by SACM stimulation and measured after 90 mins by UPLC-MS/MS analysis (reference value: 1231 +/- 356 pg/ml); assay type: functional; settings: time 105 min, 1.75 h
Macrophage cell line [18] = experiment: Effect on lipid mediator formation in human M2-like phenotype MDM cells by measuring RvD2 formation at 10 uM pre-incubated for 15 mins followed by SACM stimulation and measured after 90 mins by UPLC-MS/MS analysis (reference value: 6 +/- 1 pg/ml); assay type: functional; settings: time 105 min, 1.75 h
Macrophage cell line [19] = experiment: Effect on lipid mediator formation in human M2-like phenotype MDM cells by measuring 7-HDHA formation at 10 uM pre-incubated for 15 mins followed by SACM stimulation and measured after 90 mins by UPLC-MS/MS analysis relative to control; assay type: functional; settings: time 105 min, 1.75 h
Macrophage cell line [20] = experiment: Effect on lipid mediator formation in human M2-like phenotype MDM cells by measuring 12-HEPE formation at 10 uM pre-incubated for 15 mins followed by SACM stimulation and measured after 90 mins by UPLC-MS/MS analysis relative to control; assay type: functional; settings: time 105 min, 1.75 h
Macrophage cell line [21] = experiment: Effect on lipid mediator formation in human M2-like phenotype MDM cells by measuring MaR1 formation at 10 uM pre-incubated for 15 mins followed by SACM stimulation and measured after 90 mins by UPLC-MS/MS analysis relative to control; assay type: functional; settings: time 105 min, 1.75 h
Macrophage cell line [22] = experiment: Effect on lipid mediator formation in human M2-like phenotype MDM cells by measuring MaR2 formation at 10 uM pre-incubated for 15 mins followed by SACM stimulation and measured after 90 mins by UPLC-MS/MS analysis relative to control; assay type: functional; settings: time 105 min, 1.75 h
Macrophage cell line [23] = experiment: Effect on lipid mediator formation in human M2-like phenotype MDM cells by measuring arachidonic acid formation at 10 uM pre-incubated for 15 mins followed by SACM stimulation and measured after 90 mins by UPLC-MS/MS analysis relative to control; assay type: functional; settings: time 105 min, 1.75 h
[24] = Antioxidant activity assessed as DPPH radical scavenging activity at 10 uM incubated for 30 min by DPPH assay; assay type: functional
Neutrophil = experiment: Inhibition of ROS production in PMA-induced human Neutrophil cells at 1 uM incubated for 10 mins by DCFH-DA dye based fluorometric assay; assay type: functional, cell-based

COc1ccc(C2=C/C(=C/c3ccc(O)cc3O)C(=O)O2)cc1
Activity (Macrophage cell line [1]): 361 pg/mL
Activity (Macrophage cell line [2]): 1656 pg/mL
Activity (Macrophage cell line [3]): 8338 pg/mL
Activity (Macrophage cell line [4]): 8%
Activity (Macrophage cell line [5]): 5%
Activity (Macrophage cell line [6]): 157%
Activity (Macrophage cell line [7]): 89%
Activity (Macrophage cell line [8]): 31%
Activity (Macrophage cell line [9]): 92%
Activity (Macrophage cell line [10]): 87%
Activity (Macrophage cell line [11]): 13%
Activity (Macrophage cell line [12]): 136%
Activity (Macrophage cell line [13]): 8 pg/mL
Activity (Macrophage cell line [14]): 8152 pg/mL
Activity (Macrophage cell line [15]): 2169 pg/mL
Activity (Macrophage cell line [16]): 3796 pg/mL
Activity (Macrophage cell line [17]): 479 pg/mL
Activity (Macrophage cell line [18]): 6 pg/mL
Activity (Macrophage cell line [19]): 121%
Activity (Macrophage cell line [20]): 144%
Activity (Macrophage cell line [21]): 189%
Activity (Macrophage cell line [22]): 219%
Activity (Macrophage cell line [23]): 103%
Activity [24]: inactive
inhibition (Neutrophil): inactive

Oc1ccc(CCC2CCC(c3ccc(O)cc3)CO2)cc1 (stereo not given)
Activity (Macrophage cell line [1]): 695 pg/mL
Activity (Macrophage cell line [2]): 1236 pg/mL
Activity (Macrophage cell line [3]): 8319 pg/mL
Activity (Macrophage cell line [4]): 8%
Activity (Macrophage cell line [5]): 5%
Activity (Macrophage cell line [6]): 88%
Activity (Macrophage cell line [7]): 70%
Activity (Macrophage cell line [8]): 38%
Activity (Macrophage cell line [9]): 90%
Activity (Macrophage cell line [10]): 87%
Activity (Macrophage cell line [11]): 30%
Activity (Macrophage cell line [12]): 113%
Activity (Macrophage cell line [13]): 14 pg/mL
Activity (Macrophage cell line [14]): 6992 pg/mL
Activity (Macrophage cell line [15]): 1937 pg/mL
Activity (Macrophage cell line [16]): 4047 pg/mL
Activity (Macrophage cell line [17]): 751 pg/mL
Activity (Macrophage cell line [18]): 5 pg/mL
Activity (Macrophage cell line [19]): 116%
Activity (Macrophage cell line [20]): 128%
Activity (Macrophage cell line [21]): 106%
Activity (Macrophage cell line [22]): 191%
Activity (Macrophage cell line [23]): 113%
Activity [24]: inactive
inhibition (Neutrophil): inactive
